What was measured:
[1] = molecular target: T1, rice bran phospholipase D (PLD), Oryza sativa variety Koshihikari, eluted solution Mono Q 2nd-I (Oryza sativa, UniProt Q43007); assay: Km of purified rice bran PLD, fraction Mono Q 2nd-I (choline oxidase method); format: biochemical; conditions: Mono Q 2nd-I fraction; phosphatidylcholine as the substrate, choline quantified by choline oxidase method
T1 construct: processed N-terminus (residues 1-46 removed according to earlier note), precursor 812 aa
Procedure: (§1) For the purification, a reference relating to the purification of rice bran PLD (Takano et al., J. Jpn. Soc. Food Sci. Technol., 34, 8-13 (1987)) was referred. The enzyme activity was measured by using phosphatidylcholine as the substrate and by quantifying the choline generated by the enzyme reaction by the choline oxidase method (Imamura et al., J. Biochem. 83, 677-680 (1978)). The enzyme reaction, however, was stopped by heat treatment at 95° C. for 5 minutes.
(§2) The two fractions were analyzed for properties of the enzymes contained therein. […] The pH stability means the range in which decrease in activity was not observed after leaving the enzyme to stand at 25° C. for 30 minutes. The temperature stability was measured by measuring remaining activity after leaving the enzyme to stand at 4° C., 25° C., 37° C. or 50° C. for 30 minutes. The substrate specificity was measured at a substrate concentration of 5 mM and is expressed as a relative activity taking the enzyme activity to phosphatidylcholine as 100.

[2] = molecular target: T2, rice bran phospholipase D (PLD), Oryza sativa variety Koshihikari, eluted solution Mono Q 2nd-II (Oryza sativa, UniProt Q43007); assay: Km of purified rice bran PLD, fraction Mono Q 2nd-II (choline oxidase method); format: biochemical; conditions: Mono Q 2nd-II fraction; phosphatidylcholine as the substrate, choline quantified by choline oxidase method
T2 construct: processed N-terminus (residues 1-46 removed according to earlier note), precursor 812 aa
Procedure: as §1, §2

T1 sequence (Q43007 47-812 P139S): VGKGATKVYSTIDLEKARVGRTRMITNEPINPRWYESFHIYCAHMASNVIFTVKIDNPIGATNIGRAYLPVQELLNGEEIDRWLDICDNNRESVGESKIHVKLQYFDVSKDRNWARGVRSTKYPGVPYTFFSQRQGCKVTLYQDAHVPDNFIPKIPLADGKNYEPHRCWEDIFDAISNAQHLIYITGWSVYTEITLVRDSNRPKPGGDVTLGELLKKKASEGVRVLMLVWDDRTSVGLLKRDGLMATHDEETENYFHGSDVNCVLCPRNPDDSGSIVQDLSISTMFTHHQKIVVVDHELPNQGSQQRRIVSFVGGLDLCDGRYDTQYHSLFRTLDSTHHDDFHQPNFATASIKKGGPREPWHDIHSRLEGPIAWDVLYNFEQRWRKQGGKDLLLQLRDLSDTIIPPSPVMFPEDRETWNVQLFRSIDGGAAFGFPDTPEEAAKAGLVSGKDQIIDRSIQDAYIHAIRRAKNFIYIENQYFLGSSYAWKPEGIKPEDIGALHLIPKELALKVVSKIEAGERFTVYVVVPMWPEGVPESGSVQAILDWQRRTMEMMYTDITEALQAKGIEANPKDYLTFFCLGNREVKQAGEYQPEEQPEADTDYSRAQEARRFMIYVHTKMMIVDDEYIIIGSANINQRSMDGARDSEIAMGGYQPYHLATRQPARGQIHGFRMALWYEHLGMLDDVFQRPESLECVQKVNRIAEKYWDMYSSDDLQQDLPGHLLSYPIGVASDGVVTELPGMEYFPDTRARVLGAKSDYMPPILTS
T2 sequence (Q43007 47-812 P139S): as above

Substance: phosphatidylcholine
- Km [1]: 290 µM
- Km [2]: 290 µM

Reference: patent US5747327A, “Phospholipase D gene originated from plant” (priority 1993, dated 1998)
